Data as given in the supplement of paper PMC4932681.
Where a name gives a salt, the structure may show the parent alone.

Assays:
Assay in all cases: viability inhibition at highest dose (% inhibition); higher = more growth inhibition
[1] = system: ZR-75-1 Tam2; conditions: 4-OH-tamoxifen in medium 1 µM; 72 h
Experimental: (§1)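 Percent inhibition of viability (CellTiter-Glo, 72 h) at the highest tested concentration (D5), normalised to DMSO (0%) and 100 µM benzethonium chloride (100%). Resistant lines and the 'in 1µM tamoxifen' arms were tested in 1 µM 4-OH-tamoxifen.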

[2] = system: T-47D Tam2; conditions: 4-OH-tamoxifen in medium 1 µM; 72 h
Experimental: as §1

[3] = system: ZR-75-1 Tam1; conditions: 4-OH-tamoxifen in medium 1 µM; 72 h
Experimental: as §1

[4] = system: BT-474 Tam2; conditions: 4-OH-tamoxifen in medium 1 µM; 72 h
Experimental: as §1

[5] = system: T-47D Tam1; conditions: 4-OH-tamoxifen in medium 1 µM; 72 h
Experimental: as §1

[6] = system: BT-474 Tam1; conditions: 4-OH-tamoxifen in medium 1 µM; 72 h
Experimental: as §1

[7] = system: ZR-75-1; conditions: 72 h
Experimental: as §1

[8] = system: MCF-7 Tam1; conditions: 4-OH-tamoxifen in medium 1 µM; 72 h
Experimental: as §1

[9] = system: BT-474; conditions: 72 h
Experimental: as §1

[10] = system: T-47D; conditions: 72 h
Experimental: as §1

[11] = system: MCF-7; conditions: 72 h
Experimental: as §1

| SMILES | viability inhibition at highest dose [1] | viability inhibition at highest dose [2] | viability inhibition at highest dose [3] | viability inhibition at highest dose [4] | viability inhibition at highest dose [5] | viability inhibition at highest dose [6] | viability inhibition at highest dose ([7]; 4-OH-tamoxifen in medium 0 µM) | viability inhibition at highest dose ([7]; 4-OH-tamoxifen in medium 1 µM) | viability inhibition at highest dose [8] | viability inhibition at highest dose ([9]; 4-OH-tamoxifen in medium 0 µM) | viability inhibition at highest dose ([9]; 4-OH-tamoxifen in medium 1 µM) | viability inhibition at highest dose ([10]; 4-OH-tamoxifen in medium 0 µM) | viability inhibition at highest dose ([10]; 4-OH-tamoxifen in medium 1 µM) | viability inhibition at highest dose ([11]; 4-OH-tamoxifen in medium 0 µM) | viability inhibition at highest dose ([11]; 4-OH-tamoxifen in medium 1 µM) |
| --- | --- | --- | --- | --- | --- | --- | --- | --- | --- | --- | --- | --- | --- | --- | --- |
| O=C(c1cc(Cc2n[nH]c(=O)c3ccccc23)ccc1F)N1CCN(C(=O)C2CC2)CC1 [Olaparib] (drug 10000 nM) | 6.09 | 13.8 | 9.56 | 6.64 | 3.42 | 11.7 | 2.83 | -2.23 | -1.72 | -3.98 | -18.1 | 10.8 | 0.545 | -12.5 | 18 |
| COC(=O)C[C@](O)(CCCC(C)(C)O)C(=O)O[C@@H]1C(OC)=C[C@]23CCCN2CCc2cc4c(cc2[C@H]13)OCO4 [Omacetaxine (Homoharringtonine)] (drug 10000 nM) | 76.1 | 71.4 | 53.7 | 73.4 | 74.5 | 82.1 | 54.1 | 52.2 | 62.7 | 19.5 | 75 | 81.1 | 55.6 | 82.1 | 75.5 |
| O=C(O)C(=O)O.[NH-][C@@H]1CCCC[C@H]1[NH-].[Pt+2] [Oxaliplatin] (drug 10000 nM) | 5.48 | 5.52 | 4.08 | 1.63 | 1.11 | -7.39 | 2.13 | -0.0598 | -5.32 | -9.5 | -21.1 | -7.69 | -13.3 | 4.06 | 3.34 |
| O=C(Nc1cccnc1)N1CCC(Cc2cccc(Oc3ccc(C(F)(F)F)cn3)c2)CC1 [PF-3845] (drug 10000 nM) | 49.9 | 36.1 | 39.4 | 95.7 | 52.3 | 95.4 | 30.5 | 51.3 | 29.1 | 72 | 81.8 | 40.6 | 25.3 | 53.1 | 58.6 |
| COc1ccccc1S(=O)(=O)Nc1ccc2c(c1)CN(C)C(=O)N2 [PFI-1] (drug 10000 nM) | 25.8 | 32.8 | 23.8 | 30.3 | 36.4 | 25.7 | 13.1 | 25.2 | 4.98 | 32.8 | 25.7 | 26.2 | 14 | 44.2 | 38.1 |
| Cc1ccc([N+](=O)[O-])cc1S(=O)(=O)N(C)/N=C/c1cnc2ccc(Br)cn12 [PIK-75 (HCl)] (drug 10000 nM) | 83.9 | 83.6 | 88.8 | 98.6 | 91.4 | 99.3 | 80 | 71 | 81.4 | 97.9 | 97.7 | 60.4 | 56.9 | 64.9 | 85.5 |
| CC(=O)O[C@H]1C(=O)[C@@]2(C)[C@H]([C@H](OC(=O)c3ccccc3)[C@]3(O)C[C@H](OC(=O)[C@H](O)[C@@H](NC(=O)c4ccccc4)c4ccccc4)C(C)=C1C3(C)C)[C@]1(OC(C)=O)CO[C@@H]1C[C@@H]2O [Paclitaxel] (drug 1000 nM) | 0.492 | 35.9 | 4.53 | 25.5 | 26 | 35.2 | 26.9 | 4.99 | -17.1 | 42.7 | 55.7 | 47 | 15.8 | 28.8 | 25.8 |
| Cc1[nH]c2ccccc2c1CCNCc1ccc(/C=C/C(=O)NO)cc1 [Panobinostat] (drug 1000 nM) | 51.4 | 68.7 | 43.1 | 69.6 | 85.3 | 84.4 | 50.5 | 40.7 | 21.3 | 87.5 | 97.2 | 96.4 | 95.5 | 89.4 | 88.4 |
| C/C(=C\c1csc(C)n1)[C@@H]1C[C@@H]2O[C@]2(C)CCC[C@H](C)[C@H](O)[C@@H](C)C(=O)C(C)(C)[C@@H](O)CC(=O)O1 [Patupilone  (Epothilone B)] (drug 1000 nM) | 1.47 | 33.4 | 1.36 | 28 | 22 | 38.2 | 8.28 | -8.45 | -9.25 | 49.2 | 56.4 | 38.1 | 8.65 | 24.1 | 21.5 |
| Cc1ccc(Nc2nccc(N(C)c3ccc4c(C)n(C)nc4c3)n2)cc1S(N)(=O)=O [Pazopanib] (drug 10000 nM) | 10.8 | 23.6 | 6.13 | 7.37 | 4.97 | 23.6 | -3.01 | 11.1 | 1.65 | -2.15 | -6.21 | 12.7 | -6.23 | 8.65 | 16.4 |
| Nc1nc2[nH]cc(CCc3ccc(C(=O)N[C@@H](CCC(=O)O)C(=O)O)cc3)c2c(=O)[nH]1 [Pemetrexed] (drug 10000 nM) | -6.3 | 9.3 | 1.51 | 4.1 | -2.82 | -2.78 | -12.7 | -4.01 | -1.81 | -2.99 | -11.2 | -12.4 | 8.3 | -15.5 | 14.3 |
| OC[C@H]1O[C@@H](n2cnc3c2N=CNC[C@H]3O)C[C@@H]1O [Pentostatin] (drug 10000 nM) | 40.8 | 35.5 | 46.9 | 16 | 48 | 30.3 | 48.5 | 41.3 | 19.7 | 15.9 | 13.3 | 45.1 | 28.1 | 47.4 | 30.7 |
| CS(=O)(=O)N1CCN(Cc2cc3nc(-c4cccc5[nH]ncc45)nc(N4CCOCC4)c3s2)CC1 [Pictilisib (GDC-0941)] (drug 10000 nM) | 76.1 | 67.4 | 76.9 | 82.5 | 70.6 | 86.1 | 64.3 | 60.7 | 64.4 | 63.6 | 90.6 | 68.5 | 76.6 | 76.8 | 81.6 |
| CC[C@@H]1C(=O)OC[C@@H]1Cc1cncn1C [Pilocarpine] (drug 40000 nM) | -0.127 | 9.72 | 8.48 | 6.51 | -0.157 | 4.36 | -3.18 | -6.19 | -6.84 | -0.744 | -6.73 | -7.15 | -0.389 | -3.51 | 9.03 |
| O=C(CCBr)N1CCN(C(=O)CCBr)CC1 [Pipobroman] (drug 10000 nM) | -10.5 | 9.55 | 1.68 | -8.7 | 1.06 | -12.7 | -15 | -9.45 | -9.06 | -11.7 | -7.15 | -14.7 | -5.88 | -15.2 | 9.48 |
| c1cc(CN2CCCNCCNCCCNCC2)ccc1CN1CCCNCCNCCCNCC1 [Plerixafor] (drug 2500 nM) | 4.58 | 1.1 | 1.99 | 1.19 | 2.69 | 3.09 | -5.05 | 1.12 | -8.37 | 4.13 | -27.6 | -9.65 | -11.9 | -2.68 | 1.01 |
| CO[C@H](C(=O)[C@@H](O)[C@@H](C)O)[C@@H]1Cc2cc3cc(O[C@H]4C[C@@H](O[C@@H]5C[C@@H](O)[C@H](O)[C@@H](C)O5)[C@H](O)[C@@H](C)O4)c(C)c(O)c3c(O)c2C(=O)[C@H]1O[C@H]1C[C@@H](O[C@@H]2C[C@@H](O)[C@@H](O[C@@H]3C[C@](C)(O)[C@H](O)[C@@H](C)O3)[C@@H](C)O2)[C@H](O)[C@@H](C)O1 [Plicamycin  (Mithramycin A)] (drug 10000 nM) | 83.4 | 58.7 | 75.3 | 95.5 | 62 | 95.9 | 62.6 | 63.7 | 77.5 | 67.7 | 95 | 68.7 | 44.3 | 88.9 | 88.9 |
| C[C@]12C=CC(=O)C=C1CC[C@@H]1[C@@H]2[C@@H](O)C[C@@]2(C)[C@H]1CC[C@]2(O)C(=O)CO [Prednisolone] (drug 10000 nM) | 9.43 | 6.88 | -0.584 | -3.77 | 2 | -1.37 | -7.97 | 0.573 | 0.119 | -0.102 | -6.44 | -5.27 | -8.96 | 12 | 17.2 |
| C[C@]12C=CC(=O)C=C1CC[C@@H]1[C@@H]2C(=O)C[C@@]2(C)[C@H]1CC[C@]2(O)C(=O)CO [Prednisone] (drug 10000 nM) | 5.99 | 6.96 | -0.823 | -4.01 | 0.12 | 0.805 | -12.2 | -9.15 | -6.7 | -5.13 | -15.9 | -2.36 | -14.5 | 4.17 | -2.57 |
| COCC1(CO)C(=O)C2CCN1CC2 (stereo not given) [Prima-1 Met] (drug 10000 nM) | 17.7 | -9.64 | -1.64 | 0.869 | 1.75 | -5.47 | -1.59 | -9.16 | -10.1 | -9.27 | -13.3 | -7.38 | -11.1 | 10.8 | 3.83 |
| CNNCc1ccc(C(=O)NC(C)C)cc1 [Procarbazine] (drug 10000 nM) | -4.74 | 18.8 | 5.75 | -9.69 | 0.22 | 3.72 | -8.18 | 1.35 | -2.96 | -6.73 | -0.151 | -8.64 | 3.29 | -15.7 | -26.1 |
| CC(C)(C)c1cc(NC(=O)Nc2ccc(-c3cn4c(n3)sc3cc(OCCN5CCOCC5)ccc34)cc2)no1 [Quizartinib (AC220)] (drug 1000 nM) | 5.08 | 15.8 | -2.41 | -5.01 | 11.5 | -3.77 | -17 | 8.56 | 3.09 | -0.626 | -13.2 | 11 | 9.31 | -2.81 | 6.24 |
| Cn1c(Nc2ccc(C(F)(F)F)cc2)nc2cc(Oc3ccnc(-c4ncc(C(F)(F)F)[nH]4)c3)ccc21 [RAF265] (drug 1000 nM) | 11.6 | 2.98 | -1.02 | 9 | 22.5 | 4.22 | 2.38 | -4.76 | -5.31 | -9.23 | 7.76 | 12.4 | -5.82 | -2.02 | -1.12 |
| CNC(=O)c1ccc(N2C(=S)N(c3ccc(C#N)c(C(F)(F)F)c3)C(=O)C23CCC3)cc1F [RD162] (drug 10000 nM) | 1.22 | 3.39 | 2.17 | 13.7 | 3.92 | 13.8 | -4.4 | 3.37 | 3.13 | -4.36 | -3.06 | -17.8 | 17.8 | -8.95 | 8.98 |
| O=C(c1ccc(OCCN2CCCCC2)cc1)c1c(-c2ccc(O)cc2)sc2cc(O)ccc12 [Raloxifene  HCl] (drug 10000 nM) | 2.72 | 25.9 | 9.11 | 34.8 | 12.6 | 44.3 | 11.9 | 13.3 | 21.5 | 22.8 | 54 | 11.3 | 9.48 | 33.2 | 33.8 |
| COc1cc(F)c(F)c(Nc2ccc(I)cc2F)c1NS(=O)(=O)C1(C[C@H](O)CO)CC1 [Refametinib (RDEA119)] (drug 10000 nM) | 10.6 | 22 | 8.84 | 14 | 31.2 | 36.3 | 20.6 | 14.9 | 33.1 | 9.83 | 54.3 | 24.3 | 12.7 | 44.2 | 39.9 |
